The source of these data is patent US11596639B2, “Substituted indole Mcl-1 inhibitors” (Vanderbilt University, priority 2016, dated 2023).

Molecules are shown by their SMILES. Like-named read-outs stand apart in the source and are kept apart here. Bounds are passed on as bounds.

The target of one assay is Mcl-1 (Homo sapiens (Human), UniProt Q07820). Kind of assay: TR-FRET binding assay, FITC-Bak peptide and MBP-tagged Mcl-1. The settings on record: read-out: Ki for Inhibition of Mcl-1 by TR-FRET assay. The method, then:
Compounds are diluted in DMSO in a 16-point, semilog serial dilution scheme. […] The plate was mixed and incubated for 3 hours at room temperature. […] TR-FRET signal is plotted and IC50 and Ki values are calculated in the same manner as the fluorescence polarization anisotropy based competition assays.

The subject of assay [1] is H929 human cancer cell lines. Kind of assay: Cellular viability / proliferation (Cell TiterGlo, 72 h). Type of assay: cell-based. Put shortly:
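Cells were seeded at 1,000 cells/well in medium with 10% FBS and dosed 24 h later with a 2-fold serial dilution of compound (top concentration 50 μM, final DMSO <1%).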
(In ATP-based viability assays light output follows the ATP content of the culture.)

Setting [2] is: Homo sapiens, NCI-H929, 72 h, read-out: GI50 on cellular proliferation of H929 human cancer cell lines, H929 cells, 72 h, Cell TiterGlo, 10% FBS.

Mcl-1, sequence (Q07820 172-327): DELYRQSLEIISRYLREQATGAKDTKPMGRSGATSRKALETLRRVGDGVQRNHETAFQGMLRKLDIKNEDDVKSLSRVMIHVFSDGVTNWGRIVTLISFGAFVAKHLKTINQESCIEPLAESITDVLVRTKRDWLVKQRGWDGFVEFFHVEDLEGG

One may read the Ki as a measure of affinity in units of concentration, obtained from inhibition or displacement. Turning to `Cc1cc(N2C[C@@H](C)n3c(c(CCCOc4cc(C)c(Cl)c(C)c4)c4ccc(Cl)c(-c5c(C)nn(C)c5C)c43)C2=O)c2ncc(C(=O)O)cc2c1` [Example 658, (R)-8-(7-chloro-10-(3-(4-chloro-3,5-dimethylphenoxy)propyl)-4-methyl-1-oxo-6-(1,3,5-trimethyl-1H-pyrazol-4-yl)-3,4-dihydropyrazino[1,2-a]indol-2(1H)-yl)-6-methylquinoline-3-carboxylic acid], the Ki on Mcl-1 is below 0.2 nM. Further, the GI50 in assay [1] (setting [2]) was 250 nM.

In the case of `Cc1cc(OCCCc2c3n(c4c(-c5c(C)nn(C)c5C)c(Cl)ccc24)[C@H](C)CN(c2cn(C)c4ccc(-n5ccnn5)nc24)C3=O)cc(C)c1Cl` [Example 659, (R)-7-Chloro-10-(3-(4-chloro-3,5-dimethylphenoxy)propyl)-4-methyl-2-(1-methyl-5-(1H-1,2,3-triazol-1-yl)-1H-pyrrolo[3,2-b]pyridin-3-yl)-6-(1,3,5-trimethyl-1H-pyrazol-4-yl)-3,4-dihydropyrazino[1,2-a]indol-1(2H)-one], the inhibition constant Ki on Mcl-1 was found to be 0.96 nM. Moreover, the GI50 in assay [1] (setting [2]) amounted to 930 nM.

In the case of `COCCn1c(C(=O)O)cc2cc(OC)cc(N3C[C@@H](C)n4c(c(CCCOc5cc(C)c(Cl)c(C)c5)c5ccc(Cl)c(-c6c(C)ncnc6C)c54)C3=O)c21` [Example 660, (R)-7-(7-chloro-10-(3-(4-chloro-3,5-dimethylphenoxy)propyl)-6-(4,6-dimethylpyrimidin-5-yl)-4-methyl-1-oxo-3,4-dihydropyrazino[1,2-a]indol-2(1H)-yl)-5-methoxy-1-(2-methoxyethyl)-1H-indole-2-carboxylic acid], at Mcl-1, the Ki is below 0.2 nM. The GI50 in assay [1] (setting [2]) stood at 330 nM.

In the case of `Cc1cc(OCCCc2c3n(c4c(-c5c(C)nn(C)c5C)c(Cl)ccc24)[C@H](C)CN(c2cccc4c(C(=O)O)ccnc24)C3=O)cc(C)c1Cl` [Example 661, (R)-8-(7-chloro-10-(3-(4-chloro-3,5-dimethylphenoxy)propyl)-4-methyl-1-oxo-6-(1,3,5-trimethyl-1H-pyrazol-4-yl)-3,4-dihydropyrazino[1,2-a]indol-2(1H)-yl)quinoline-4-carboxylic acid], the Ki on Mcl-1 was found to be 0.23 nM. Also, the GI50 in assay [1] (setting [2]) amounted to 2400 nM.

On to `Cc1cc(OCCCc2c3n(c4c(-c5c(C)nn(C)c5C)c(Cl)ccc24)[C@H](C)CN(c2cn(C)c4ccc(-n5nccn5)cc24)C3=O)cc(C)c1Cl` [Example 662, (R)-7-Chloro-10-(3-(4-chloro-3,5-dimethylphenoxy)propyl)-4-methyl-2-(1-methyl-5-(2H-1,2,3-triazol-2-yl)-1H-indol-3-yl)-6-(1,3,5-trimethyl-1H-pyrazol-4-yl)-3,4-dihydropyrazino[1,2-a]indol-1(2H)-one], for which, on Mcl-1, the Ki was 0.93 nM. For the same compound, in assay [1] (setting [2]), the GI50 was 1900 nM.

For the compound `Cc1cc(OCCCc2c3n(c4c(-c5c(C)nc(CN6CCN(C)C(=O)C6)nc5C)c(Cl)ccc24)[C@H](C)CN(c2cn(C)c4ccc(-c5ncn(C)n5)cc24)C3=O)cc(C)c1Cl` [Example 663, (R)-7-chloro-10-(3-(4-chloro-3,5-dimethylphenoxy)propyl)-6-(4,6-dimethyl-2-((4-methyl-3-oxopiperazin-1-yl)methyl)pyrimidin-5-yl)-4-methyl-2-(1-methyl-5-(1-methyl-1H-1,2,4-triazol-3-yl)-1H-indol-3-yl)-3,4-dihydropyrazino[1,2-a]indol-1(2H)-one], the Ki on Mcl-1 turned out to be 0.52 nM. The GI50 in assay [1] (setting [2]) is below 200 nM.

`Cc1cc(OCCCc2c3n(c4c(-c5c(C)nn(C)c5C)c(Cl)ccc24)[C@H](C)CN(c2cn(C)c4ccc(-n5nccn5)nc24)C3=O)cc(C)c1Cl` [Example 664, (R)-7-Chloro-10-(3-(4-chloro-3,5-dimethylphenoxy)propyl)-4-methyl-2-(1-methyl-5-(2H-1,2,3-triazol-2-yl)-1H-pyrrolo[3,2-b]pyridin-3-yl)-6-(1,3,5-trimethyl-1H-pyrazol-4-yl)-3,4-dihydropyrazino[1,2-a]indol-1(2H)-one]: at Mcl-1, the Ki was 0.64 nM. Also, in assay [1] (setting [2]), the GI50 came to 580 nM.

Take `COCCn1c(C(=O)O)cc2cc(OC)cc(N3C[C@@H](C)n4c(c(CCCOc5cc(C)c(Cl)c(C)c5)c5ccc(Cl)c(-c6c(C)nn(C)c6C)c54)C3=O)c21` [Example 665, (R)-7-(7-chloro-10-(3-(4-chloro-3,5-dimethylphenoxy)propyl)-4-methyl-1-oxo-6-(1,3,5-trimethyl-1H-pyrazol-4-yl)-3,4-dihydropyrazino[1,2-a]indol-2(1H)-yl)-5-methoxy-1-(2-methoxyethyl)-1H-indole-2-carboxylic acid]: the Ki at Mcl-1 is below 0.2 nM. In assay [1] (setting [2]), the GI50 stood at 280 nM.

In the case of `Cc1cc(OCCCc2c3n(c4c(-c5c(C)nn(C)c5C)c(Cl)ccc24)[C@H](C)CN(c2cn(C[C@H]4CCC[N+]4(C)C)c4ccc(C(=O)O)cc24)C3=O)cc(C)c1Cl` [Example 667, (R)-2-((5-carboxy-3-((R)-7-chloro-10-(3-(4-chloro-3,5-dimethylphenoxy)propyl)-4-methyl-1-oxo-6-(1,3,5-trimethyl-1H-pyrazol-4-yl)-3,4-dihydropyrazino[1,2-a]indol-2(1H)-yl)-1H-indol-1-yl)methyl)-1,1-dimethylpyrrolidin-1-ium], the Ki on Mcl-1 is below 0.2 nM. Further, in assay [1] (H929 cells, 72 h, Cell TiterGlo, 10% FBS, read-out: GI50 on cellular proliferation of H929 human cancer cell lines), the GI50 turned out to be 8200 nM.

With `Cc1cc(OCCCc2c3n(c4c(-c5c(C)nn(C)c5C)c(Cl)ccc24)[C@H](C)CN(c2cn(C)c4ccc(-n5ccnn5)cc24)C3=O)cc(C)c1Cl` [Example 668, (R)-7-Chloro-10-(3-(4-chloro-3,5-dimethylphenoxy)propyl)-4-methyl-2-(1-methyl-5-(1H-1,2,3-triazol-1-yl)-1H-indol-3-yl)-6-(1,3,5-trimethyl-1H-pyrazol-4-yl)-3,4-dihydropyrazino[1,2-a]indol-1(2H)-one], the Ki on Mcl-1 amounted to 7.6 nM. The GI50 in assay [1] (setting [2]) stood at 1500 nM.

Take `Cc1cc(OCCCc2c3n(c4c(-c5c(C)nn(C)c5C)c(Cl)ccc24)[C@H](C)CN(c2cc(C(=O)O)nc4ccccc24)C3=O)cc(C)c1Cl` [Example 669, (R)-4-(7-chloro-10-(3-(4-chloro-3,5-dimethylphenoxy)propyl)-4-methyl-1-oxo-6-(1,3,5-trimethyl-1H-pyrazol-4-yl)-3,4-dihydropyrazino[1,2-a]indol-2(1H)-yl)quinoline-2-carboxylic acid]: on Mcl-1, the Ki worked out at 1 nM. The GI50 in assay [1] (setting [2]) amounted to 7600 nM.

On to `Cc1ccnc(-n2cnc(-c3ccc4c(c3)c(N3C[C@@H](C)n5c(c(CCCOc6cc(C)c(Cl)c(C)c6)c6ccc(Cl)c(-c7c(C)nn(C)c7C)c65)C3=O)cn4C)n2)n1` [Example 670, (R)-7-Chloro-10-(3-(4-chloro-3,5-dimethylphenoxy)propyl)-4-methyl-2-(1-methyl-5-(1-(4-methylpyrimidin-2-yl)-1H-1,2,4-triazol-3-yl)-1H-indol-3-yl)-6-(1,3,5-trimethyl-1H-pyrazol-4-yl)-3,4-dihydropyrazino[1,2-a]indol-1(2H)-one], for which the Ki on Mcl-1 is below 0.2 nM. For the same compound, the GI50 in assay [1] (setting [2]) is below 200 nM.

On to `COCCn1cc(C(=O)O)c2cc(OCCN(C)C)cc(N3C[C@@H](C)n4c(c(CCCOc5cc(C)c(Cl)c(C)c5)c5ccc(Cl)c(-c6c(C)nn(C)c6C)c54)C3=O)c21` [Example 671, (R)-7-(7-chloro-10-(3-(4-chloro-3,5-dimethylphenoxy)propyl)-4-methyl-1-oxo-6-(1,3,5-trimethyl-1H-pyrazol-4-yl)-3,4-dihydropyrazino[1,2-a]indol-2(1H)-yl)-5-(2-(dimethylamino)ethoxy)-1-(2-methoxyethyl)-1H-indole-3-carboxylic acid], for which the Ki at Mcl-1 was 0.32 nM. Besides, the GI50 in assay [1] (setting [2]) came to 890 nM.

`COCc1nc(-c2ccc3c(c2)c(N2C[C@@H](C)n4c(c(CCCOc5cc(C)c(Cl)c(C)c5)c5ccc(Cl)c(-c6c(C)nn(C)c6C)c54)C2=O)cn3C)nn1C` [Example 674, (R)-7-Chloro-10-(3-(4-chloro-3,5-dimethylphenoxy)propyl)-2-(5-(5-(methoxymethyl)-1-methyl-1H-1,2,4-triazol-3-yl)-1-methyl-1H-indol-3-yl)-4-methyl-6-(1,3,5-trimethyl-1H-pyrazol-4-yl)-3,4-dihydropyrazino[1,2-a]indol-1(2H)-one]: on Mcl-1, the Ki is 2.1 nM. The GI50 in assay [1] (setting [2]) is 210 nM.

Turning to `Cc1cc(OCCCc2c3n(c4c(-c5c(C)nn(C)c5C)c(Cl)ccc24)[C@H](C)CN(c2cn(C)c4ccc(-c5nnc6ccccn56)cc24)C3=O)cc(C)c1Cl` [Example 675, (R)-2-(5-([1,2,4]Triazolo[4,3-a]pyridin-3-yl)-1-methyl-1H-indol-3-yl)-7-chloro-10-(3-(4-chloro-3,5-dimethylphenoxy)propyl)-4-methyl-6-(1,3,5-trimethyl-1H-pyrazol-4-yl)-3,4-dihydropyrazino[1,2-a]indol-1(2H)-one], at Mcl-1, the inhibition constant Ki was 28 nM. Further, in assay [1] (setting [2]), the GI50 was 4800 nM.

In the case of `COCCn1cc(C(=O)O)c2cc(OCCN3CCN(C)CC3)cc(N3C[C@@H](C)n4c(c(CCCOc5cc(C)c(Cl)c(C)c5)c5ccc(Cl)c(-c6c(C)nn(C)c6C)c54)C3=O)c21` [Example 676, (R)-7-(7-chloro-10-(3-(4-chloro-3,5-dimethylphenoxy)propyl)-4-methyl-1-oxo-6-(1,3,5-trimethyl-1H-pyrazol-4-yl)-3,4-dihydropyrazino[1,2-a]indol-2(1H)-yl)-1-(2-methoxyethyl)-5-(2-(4-methylpiperazin-1-yl)ethoxy)-1H-indole-3-carboxylic acid], the Ki at Mcl-1 was 0.56 nM. Also, the GI50 in assay [1] (setting [2]) was 1100 nM.
